Test results from patent publication US6500853B1, “Inhibitors of phospholipase enzymes” (Genetics Institute, LLC, priority 1998, dated 2002).
Values belong to the molecule of their own block, whether it stands above or below them.

Assays:
cPLA2 = molecular target: T1, cPLA2 (Homo sapiens, UniProt P47712); test: Coumarin Assay (cPLA2 inhibition); format: biochemical; conditions: for inhibition at 0.6 µM: CONCENTRATION 0.6 micromolar; for inhibition at 0.7 µM: CONCENTRATION 0.7 micromolar; for inhibition at 1 µM: CONCENTRATION 1 micromolar; for inhibition at 0.9 µM: CONCENTRATION 0.9 micromolar; for inhibition at 3 µM: CONCENTRATION 3 micromolar; for inhibition at 3.8 µM: CONCENTRATION 3.8 micromolar; for inhibition at 2.2 µM: CONCENTRATION 2.2 micromolar; for inhibition at 1.8 µM: CONCENTRATION 1.8 micromolar
T1 sequence (P47712 1-749): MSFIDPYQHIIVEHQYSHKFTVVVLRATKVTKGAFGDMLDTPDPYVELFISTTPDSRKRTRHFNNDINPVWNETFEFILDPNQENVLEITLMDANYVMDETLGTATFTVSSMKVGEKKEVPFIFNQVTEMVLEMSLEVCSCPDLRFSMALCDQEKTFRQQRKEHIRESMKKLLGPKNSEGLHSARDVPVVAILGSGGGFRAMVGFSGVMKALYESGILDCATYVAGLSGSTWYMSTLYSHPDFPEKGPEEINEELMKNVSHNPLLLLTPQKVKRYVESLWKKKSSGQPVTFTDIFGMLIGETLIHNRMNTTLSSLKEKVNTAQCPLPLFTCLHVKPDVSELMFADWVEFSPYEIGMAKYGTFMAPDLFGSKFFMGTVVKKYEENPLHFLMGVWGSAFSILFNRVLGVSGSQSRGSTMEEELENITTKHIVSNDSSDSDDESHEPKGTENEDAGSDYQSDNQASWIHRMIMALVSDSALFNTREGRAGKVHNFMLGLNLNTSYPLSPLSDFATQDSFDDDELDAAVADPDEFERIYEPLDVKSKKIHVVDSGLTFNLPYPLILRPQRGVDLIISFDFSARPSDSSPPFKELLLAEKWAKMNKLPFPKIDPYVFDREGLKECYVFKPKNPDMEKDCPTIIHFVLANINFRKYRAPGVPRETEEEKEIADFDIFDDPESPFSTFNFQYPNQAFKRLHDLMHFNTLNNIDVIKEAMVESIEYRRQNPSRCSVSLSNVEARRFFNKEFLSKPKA
Outline: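 Percent inhibition at the stated concentration, from the rate of 460 nm emission rise (360 nm excitation) per minute. Reaction started by adding 4 μg enzyme to compound and 60 μM 7-hydroxycoumarinyl 6-heptenoate in Hepes buffer pH 7.5 with 1 mM EDTA.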

[1] = test system: Rat Carrageenan-Induced Footpad Edema; test: Rat Carrageenan-Induced Footpad Edema Test; format: in vivo, male Sprague Dawley rats; conditions: footpad volume 3 hours after carrageenan; for inhibition in vivo at 2 mg/kg / inhibition in vivo at 10 mg/kg / inhibition in vivo at 5 mg/kg: Rattus norvegicus, 3 h, read-out: PERCENT INHIBITION; for inhibition in vivo at 2 mg/kg / inhibition in vivo at 10 mg/kg: po; for inhibition in vivo at 2 mg/kg / inhibition in vivo at 10 mg/kg / PERCENT INHIBITION: PO; for inhibition in vivo at 5 mg/kg: iv, IV
[2] = CONCENTRATION 0.8 micromolar, read-out: PERCENT INHIBITION @
[3] = CONCENTRATION 2.5 micromolar, read-out: PERCENT INHIBITION @

Compound: COc1cc(C(=O)NS(=O)(=O)C(F)(F)F)ccc1Cc1cn(C(c2ccccc2)c2ccccc2)c2ccc([N+](=O)[O-])cc12 [Example 37, N-{4-[(1-benzhydryl-5-nitro-1H-indol-3-yl)methyl]-3-methoxybenzoyl}(trifluoro)methanesulfonamide]
inhibition at 0.4 µM (cPLA2; CONCENTRATION 0.4 micromolar, read-out: PERCENT INHIBITION @): 50% | inhibition at 0.5 µM (cPLA2; CONCENTRATION 0.5 micromolar, read-out: PERCENT INHIBITION @): 50% | inhibition at 0.55 µM (cPLA2; CONCENTRATION 0.55 micromolar, read-out: PERCENT INHIBITION @): 50% | inhibition at 0.65 µM (cPLA2; CONCENTRATION 0.65 micromolar, read-out: PERCENT INHIBITION @): 50% | inhibition in vivo at 2 mg/kg ([1]; 2 mg/Kg): -7.94% | inhibition in vivo at 10 mg/kg ([1]; 10 mg/Kg): 3.36%

Compound: COc1cc(C(=O)NS(=O)(=O)C(F)(F)F)ccc1Cc1cn(C(c2ccccc2)c2ccccc2)c2ccc(NS(C)(=O)=O)cc12 [Example 41, N-[4-({1-benzhydryl-5-[(methylsulfonyl)amino]-1H-indol-3-yl}methyl)-3-methoxybenzoyl](trifluoro)methanesulfonamide]
inhibition at 2.5 µM (cPLA2; [3]): 50% | inhibition at 3.8 µM (cPLA2; read-out: PERCENT INHIBITION @): 50% | inhibition at 4.3 µM (cPLA2; CONCENTRATION 4.3 micromolar, read-out: PERCENT INHIBITION @): 50% | inhibition at 5 µM (cPLA2; CONCENTRATION 5 micromolar, read-out: PERCENT INHIBITION @): 50% | inhibition in vivo at 5 mg/kg [1]: 10.1%

Compound: CCCCNC(=O)Nc1ccc2c(c1)c(Cc1ccc(C(=O)NS(=O)(=O)C(F)(F)F)cc1OC)cn2C(c1ccccc1)c1ccccc1 [Example 42, N-{4-[(1-benzhydryl-5-{[(butylamino)carbonyl]amino}-1H-indol-3-yl)methyl]-3-methoxybenzoyl}(trifluoro)methanesulfonamide]
inhibition at 2.2 µM (cPLA2; read-out: PERCENT INHIBITION @): 50% | inhibition at 3 µM (cPLA2; read-out: PERCENT INHIBITION @): 50% | inhibition at 3.8 µM (cPLA2; read-out: PERCENT INHIBITION @): 50% | inhibition in vivo at 5 mg/kg [1]: 7.72%

Compound: COc1cc(C(=O)NS(=O)(=O)C(F)(F)F)ccc1Cc1cn(C(c2ccccc2)c2ccccc2)c2ccc(NC(=O)OCc3ccccc3)cc12 [Example 49, benzyl N-{1-benzhydryl-3-[2-methoxy-4-({[(trifluoromethyl)sulfonyl]amino}carbonyl)benzyl]-1H-indol-5-yl}carbamate]
inhibition at 1.5 µM (cPLA2; CONCENTRATION 1.5 micromolar, read-out: PERCENT INHIBITION @): 50% | inhibition at 1.8 µM (cPLA2; read-out: PERCENT INHIBITION @): 50% | inhibition at 2.3 µM (cPLA2; CONCENTRATION 2.3 micromolar, read-out: PERCENT INHIBITION @): 50% | inhibition in vivo at 5 mg/kg [1]: 18%

Compound: O=C(O)c1ccc(Cc2cn(C(c3ccccc3)c3ccccc3)c3ccc([N+](=O)[O-])cc23)cc1 [Example 50, 4-[(-benzhydryl-5-nitro-1H-indol-3-yl)methyl]benzoic acid]
PERCENT INHIBITION @ (cPLA2; CONCENTRATION 0.8 micromolar): 50% | PERCENT INHIBITION @ (cPLA2; CONCENTRATION 0.85 micromolar): 50% | PERCENT INHIBITION @ (cPLA2; CONCENTRATION 1.05 micromolar): 50% | PERCENT INHIBITION @ (cPLA2; CONCENTRATION 2.5 micromolar): 81% | PERCENT INHIBITION ([1]; 2 mg/Kg): 5.44% | PERCENT INHIBITION ([1]; 10 mg/Kg): 12.34%

More lines, main results first:

inhibition at 0.3 µM (cPLA2; CONCENTRATION 0.3 micromolar, read-out: PERCENT INHIBITION @): 50% | inhibition at 0.45 µM (cPLA2; CONCENTRATION 0.45 micromolar, read-out: PERCENT INHIBITION @): 50% | inhibition at 0.57 µM (cPLA2; CONCENTRATION 0.57 micromolar, read-out: PERCENT INHIBITION @): 50% | inhibition at 0.59 µM (cPLA2; CONCENTRATION 0.59 micromolar, read-out: PERCENT INHIBITION @): 50% | inhibition at 0.6 µM (cPLA2; read-out: PERCENT INHIBITION @): 50% | inhibition at 0.64 µM (cPLA2; CONCENTRATION 0.64 micromolar, read-out: PERCENT INHIBITION @): 50% | inhibition at 0.7 µM (cPLA2; read-out: PERCENT INHIBITION @): 50% | inhibition at 0.85 µM (cPLA2; CONCENTRATION 0.85 micromolar, read-out: PERCENT INHIBITION @): 50% | inhibition at 1 µM (cPLA2; read-out: PERCENT INHIBITION @): 50%
Compound: COc1cc(C(=O)NS(=O)(=O)c2ccccc2C)ccc1Cc1cn(C(c2ccccc2)c2ccccc2)c2ccc(Br)cc12 [Example 38, N-{4-[(1-benzhydryl-5-bromo-1H-indol-3-yl)methyl]-3-methoxybenzoyl}-2-methylbenzenesulfonamide]
inhibition in vivo at 2 mg/kg ([1]; 2 mg/Kg): 15.4% | inhibition in vivo at 10 mg/kg ([1]; 10 mg/Kg): 26.3%

inhibition at 0.39 µM (cPLA2; CONCENTRATION 0.39 micromolar, read-out: PERCENT INHIBITION @): 50% | inhibition at 0.7 µM (cPLA2; read-out: PERCENT INHIBITION @): 50% | inhibition at 0.73 µM (cPLA2; CONCENTRATION 0.73 micromolar, read-out: PERCENT INHIBITION @): 50% | inhibition at 0.75 µM (cPLA2; CONCENTRATION 0.75 micromolar, read-out: PERCENT INHIBITION @): 50% | inhibition at 0.8 µM (cPLA2; [2]): 50% | inhibition at 0.9 µM (cPLA2; read-out: PERCENT INHIBITION @): 50% | inhibition at 1 µM (cPLA2; read-out: PERCENT INHIBITION @): 50% | inhibition at 1.2 µM (cPLA2; CONCENTRATION 1.2 micromolar, read-out: PERCENT INHIBITION @): 50% | inhibition at 1.3 µM (cPLA2; CONCENTRATION 1.3 micromolar, read-out: PERCENT INHIBITION @): 50% | inhibition at 1.6 µM (cPLA2; CONCENTRATION 1.6 micromolar, read-out: PERCENT INHIBITION @): 50%
Compound: COc1cc(C(=O)NS(=O)(=O)C(F)(F)F)ccc1Cc1cn(C(c2ccccc2)c2ccccc2)c2ccc(Br)cc12 [Example 39, N-{4-[(1-benzhydryl-5-bromo-1H-indol-3-yl)methyl]-3-methoxybenzoyl}(trifluoro)methanesulfonamide]
inhibition in vivo at 2 mg/kg ([1]; 2 mg/Kg): 1.98% | inhibition in vivo at 10 mg/kg ([1]; 10 mg/Kg): -7.16%

PERCENT INHIBITION @ (cPLA2; CONCENTRATION 2.5 micromolar): 55% | inhibition at 2.5 µM (cPLA2; [3]): 50% | inhibition at 3 µM (cPLA2; read-out: PERCENT INHIBITION @): 50% | inhibition at 3.6 µM (cPLA2; CONCENTRATION 3.6 micromolar, read-out: PERCENT INHIBITION @): 50%
Compound: COc1cc(C(=O)NS(=O)(=O)C(F)(F)F)ccc1Cc1cn(C(c2ccccc2)c2ccccc2)c2ccc(NC(=O)C3CCCC3)cc12 [Example 40, N-{1-benzhydryl-3-[2-methoxy-4-({[(trifluoromethyl)sulfonyl]amino}carbonyl)benzyl]-1H-indol-5-yl}cyclopentanecarboxamide]
inhibition in vivo at 5 mg/kg [1]: 8.21%

inhibition at 1.75 µM (cPLA2; CONCENTRATION 1.75 micromolar, read-out: PERCENT INHIBITION @): 50% | inhibition at 1.8 µM (cPLA2; read-out: PERCENT INHIBITION @): 50% | inhibition at 1.9 µM (cPLA2; CONCENTRATION 1.9 micromolar, read-out: PERCENT INHIBITION @): 50% | inhibition at 2 µM (cPLA2; CONCENTRATION 2 micromolar, read-out: PERCENT INHIBITION @): 50% | inhibition at 2.1 µM (cPLA2; CONCENTRATION 2.1 micromolar, read-out: PERCENT INHIBITION @): 50% | inhibition at 2.5 µM (cPLA2; [3]): 74%
Compound: COc1cc(C(=O)NS(=O)(=O)C(F)(F)F)ccc1Cc1cn(C(c2ccccc2)c2ccccc2)c2ccc(NS(=O)(=O)Cc3ccccc3)cc12 [Example 45, N-[4-({1-benzhydryl-5-[(benzylsulfonyl)amino]-1H-indol-3-yl}methyl)-3-methoxybenzoyl](trifluoro)methanesulfonamide]
inhibition in vivo at 5 mg/kg [1]: 10.2%

inhibition at 2.2 µM (cPLA2; read-out: PERCENT INHIBITION @): 50% | inhibition at 2.5 µM (cPLA2; [3]): 67% | inhibition at 2.7 µM (cPLA2; CONCENTRATION 2.7 micromolar, read-out: PERCENT INHIBITION @): 50% | inhibition at 3.5 µM (cPLA2; CONCENTRATION 3.5 micromolar, read-out: PERCENT INHIBITION @): 50% | inhibition at 4.5 µM (cPLA2; CONCENTRATION 4.5 micromolar, read-out: PERCENT INHIBITION @): 50%
Compound: COc1cc(C(=O)NS(=O)(=O)C(F)(F)F)ccc1Cc1cn(C(c2ccccc2)c2ccccc2)c2ccc(NC(=O)c3ccsc3)cc12 [Example 46, N-{1-benzhydryl-3-[2-methoxy-4-({[(trifluoromethyl)sulfonyl]amino}carbonyl)benzyl]-1H-indol-5-yl}-3-thiophenecarboxamide]
inhibition in vivo at 5 mg/kg [1]: 4.58%

inhibition at 0.6 µM (cPLA2; read-out: PERCENT INHIBITION @): 50% | inhibition at 0.8 µM (cPLA2; [2]): 50% | inhibition at 0.9 µM (cPLA2; read-out: PERCENT INHIBITION @): 50%
Compound: O=C(O)c1ccc(Cc2cn(C(c3ccccc3)c3ccccc3)c3ccc(Br)cc23)cc1 [Example 51, 4-[(1-benzhydryl-5-bromo-1H-indol-3-yl)methyl]benzoic acid]
inhibition in vivo at 2 mg/kg ([1]; 2 mg/Kg): 3.23% | inhibition in vivo at 10 mg/kg ([1]; 10 mg/Kg): 15.4%
